In patent publication US12479847B2 (DANA-FARBER CANCER INSTITUTE, INC., priority 2019, dated 2025):
Like-named read-outs stand apart in the source and are kept apart here.

How the values were obtained:
Test in all cases: KINOMEscan (ScanMAX) kinase profiling
Type in all cases: binding
[1] = molecular target: T1, panel of 468 kinases (Homo sapiens, UniProt O14730); conditions: RIOK3; 1 μM; read-out: % control
T1 construct: purchased KINOMEscan (ScanMAX) service
T1 sequence (O14730 1-519): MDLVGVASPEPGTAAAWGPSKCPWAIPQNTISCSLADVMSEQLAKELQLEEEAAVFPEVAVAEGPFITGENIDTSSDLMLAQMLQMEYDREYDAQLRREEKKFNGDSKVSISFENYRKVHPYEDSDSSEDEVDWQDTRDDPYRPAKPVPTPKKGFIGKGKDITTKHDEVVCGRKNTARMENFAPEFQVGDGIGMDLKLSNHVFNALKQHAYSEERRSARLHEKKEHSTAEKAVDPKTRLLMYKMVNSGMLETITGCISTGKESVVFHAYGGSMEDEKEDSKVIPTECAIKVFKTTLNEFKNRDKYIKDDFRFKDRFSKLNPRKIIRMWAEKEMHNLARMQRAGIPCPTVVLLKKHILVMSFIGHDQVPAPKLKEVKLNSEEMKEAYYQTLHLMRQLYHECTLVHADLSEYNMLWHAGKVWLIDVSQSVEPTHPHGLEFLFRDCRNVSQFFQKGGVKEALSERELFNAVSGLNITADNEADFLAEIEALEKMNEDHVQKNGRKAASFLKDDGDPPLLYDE

[2] = molecular target: T2, panel of 468 kinases (Homo sapiens, UniProt O75582); conditions: 1 μM, read-out: % control
T2 construct: purchased KINOMEscan (ScanMAX) service
T2 sequence (O75582 whole entry): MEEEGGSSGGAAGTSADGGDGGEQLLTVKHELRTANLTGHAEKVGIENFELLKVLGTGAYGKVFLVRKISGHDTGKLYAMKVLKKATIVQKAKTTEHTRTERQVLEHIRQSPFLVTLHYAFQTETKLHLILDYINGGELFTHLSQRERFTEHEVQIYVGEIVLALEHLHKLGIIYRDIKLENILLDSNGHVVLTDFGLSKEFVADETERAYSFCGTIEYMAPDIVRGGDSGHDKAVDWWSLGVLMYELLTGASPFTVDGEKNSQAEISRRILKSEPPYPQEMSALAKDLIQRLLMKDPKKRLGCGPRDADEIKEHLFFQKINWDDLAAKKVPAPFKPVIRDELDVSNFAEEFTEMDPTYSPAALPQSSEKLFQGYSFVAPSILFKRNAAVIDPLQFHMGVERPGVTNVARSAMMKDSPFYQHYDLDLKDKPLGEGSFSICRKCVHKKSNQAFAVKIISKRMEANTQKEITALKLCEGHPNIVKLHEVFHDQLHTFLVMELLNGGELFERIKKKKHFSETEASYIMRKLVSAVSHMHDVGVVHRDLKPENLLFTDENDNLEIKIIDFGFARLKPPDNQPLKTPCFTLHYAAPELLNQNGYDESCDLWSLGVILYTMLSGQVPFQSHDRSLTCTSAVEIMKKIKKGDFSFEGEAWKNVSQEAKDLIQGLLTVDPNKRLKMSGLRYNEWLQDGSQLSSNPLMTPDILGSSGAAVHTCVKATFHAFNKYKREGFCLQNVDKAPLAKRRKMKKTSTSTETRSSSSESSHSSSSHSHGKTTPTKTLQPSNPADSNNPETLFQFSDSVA

[3] = molecular target: T3, panel of 468 kinases (Homo sapiens, UniProt O95747); conditions: OSR1; 1 μM; read-out: % control
T3 construct: purchased KINOMEscan (ScanMAX) service

[4] = molecular target: T4, panel of 468 kinases (Homo sapiens, UniProt P04629); conditions: TRKA; 1 μM; read-out: % control
T4 construct: purchased KINOMEscan (ScanMAX) service

[5] = molecular target: T5, panel of 468 kinases (Homo sapiens, UniProt P10721, T670I/V559D); conditions: KIT(V559D,T670I); 1 μM; read-out: % control
T5 construct: purchased KINOMEscan (ScanMAX) service
T5 sequence (P10721 26-976 V559D/T670I): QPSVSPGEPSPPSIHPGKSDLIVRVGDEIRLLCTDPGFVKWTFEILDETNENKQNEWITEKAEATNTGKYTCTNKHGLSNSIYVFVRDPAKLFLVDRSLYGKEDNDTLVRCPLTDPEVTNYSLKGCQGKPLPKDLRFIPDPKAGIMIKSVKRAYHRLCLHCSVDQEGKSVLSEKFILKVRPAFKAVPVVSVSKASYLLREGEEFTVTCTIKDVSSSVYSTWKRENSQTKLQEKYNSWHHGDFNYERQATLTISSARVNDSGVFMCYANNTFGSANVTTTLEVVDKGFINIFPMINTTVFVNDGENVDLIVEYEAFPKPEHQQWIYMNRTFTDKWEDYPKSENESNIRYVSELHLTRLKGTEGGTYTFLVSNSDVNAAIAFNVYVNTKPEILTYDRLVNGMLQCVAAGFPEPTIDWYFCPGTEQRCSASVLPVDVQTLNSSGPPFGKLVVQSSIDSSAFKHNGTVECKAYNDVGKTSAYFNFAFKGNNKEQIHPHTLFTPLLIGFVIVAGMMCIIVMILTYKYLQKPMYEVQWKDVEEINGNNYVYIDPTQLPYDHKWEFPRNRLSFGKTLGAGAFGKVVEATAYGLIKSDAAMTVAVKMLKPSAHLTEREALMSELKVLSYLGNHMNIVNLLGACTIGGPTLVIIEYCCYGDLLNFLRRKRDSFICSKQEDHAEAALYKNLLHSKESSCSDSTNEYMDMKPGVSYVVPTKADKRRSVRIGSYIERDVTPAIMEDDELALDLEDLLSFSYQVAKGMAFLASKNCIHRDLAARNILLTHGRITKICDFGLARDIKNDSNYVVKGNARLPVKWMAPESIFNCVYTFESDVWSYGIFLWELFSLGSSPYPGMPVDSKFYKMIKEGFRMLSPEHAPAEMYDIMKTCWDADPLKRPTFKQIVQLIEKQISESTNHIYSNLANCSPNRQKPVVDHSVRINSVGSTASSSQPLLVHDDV

[6] = molecular target: T6, panel of 468 kinases (Homo sapiens, UniProt P42336); conditions: PIK3CA; 1 μM; read-out: % control
T6 construct: purchased KINOMEscan (ScanMAX) service

[7] = molecular target: T7, panel of 468 kinases (Homo sapiens, UniProt P49336); conditions: CDK8; 1 μM; read-out: % control
T7 construct: purchased KINOMEscan (ScanMAX) service

[8] = molecular target: T8, panel of 468 kinases (Homo sapiens, UniProt P53667); conditions: LIMK1; 1 μM; read-out: % control
T8 construct: purchased KINOMEscan (ScanMAX) service
T8 sequence (P53667 whole entry): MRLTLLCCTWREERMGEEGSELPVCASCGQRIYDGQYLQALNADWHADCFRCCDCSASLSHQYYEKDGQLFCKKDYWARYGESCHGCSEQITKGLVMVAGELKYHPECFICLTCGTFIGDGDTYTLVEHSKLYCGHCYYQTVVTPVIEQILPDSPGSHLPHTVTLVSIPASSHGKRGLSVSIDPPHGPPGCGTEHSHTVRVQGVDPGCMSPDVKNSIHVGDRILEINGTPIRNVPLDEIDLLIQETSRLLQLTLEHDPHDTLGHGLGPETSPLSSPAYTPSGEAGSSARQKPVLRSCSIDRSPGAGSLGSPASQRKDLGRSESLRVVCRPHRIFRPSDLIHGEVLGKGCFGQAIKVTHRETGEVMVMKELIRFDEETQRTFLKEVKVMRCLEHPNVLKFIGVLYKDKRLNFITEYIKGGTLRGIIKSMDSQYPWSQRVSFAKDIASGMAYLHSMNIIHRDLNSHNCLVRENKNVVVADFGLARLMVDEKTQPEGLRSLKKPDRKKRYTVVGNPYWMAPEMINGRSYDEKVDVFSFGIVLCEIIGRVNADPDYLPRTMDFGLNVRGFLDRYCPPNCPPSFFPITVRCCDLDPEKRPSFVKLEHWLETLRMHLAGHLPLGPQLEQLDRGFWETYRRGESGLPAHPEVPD

[9] = molecular target: T9, panel of 468 kinases (Homo sapiens, UniProt Q13043); conditions: MST1; 1 μM; read-out: % control
T9 construct: purchased KINOMEscan (ScanMAX) service
T9 sequence (Q13043 1-487): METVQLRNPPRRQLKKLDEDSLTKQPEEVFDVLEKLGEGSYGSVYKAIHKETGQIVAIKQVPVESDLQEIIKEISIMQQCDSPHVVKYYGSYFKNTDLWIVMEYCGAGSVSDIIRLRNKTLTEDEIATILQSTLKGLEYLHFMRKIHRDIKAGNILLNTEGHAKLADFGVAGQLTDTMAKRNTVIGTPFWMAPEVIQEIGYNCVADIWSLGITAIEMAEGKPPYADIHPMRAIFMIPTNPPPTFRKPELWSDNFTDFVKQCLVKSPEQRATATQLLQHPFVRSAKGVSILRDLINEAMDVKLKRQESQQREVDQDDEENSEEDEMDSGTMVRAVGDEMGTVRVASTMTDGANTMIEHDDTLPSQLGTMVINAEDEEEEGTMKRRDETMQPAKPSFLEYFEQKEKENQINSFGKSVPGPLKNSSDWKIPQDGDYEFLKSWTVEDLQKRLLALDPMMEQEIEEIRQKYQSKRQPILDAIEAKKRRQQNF

[10] = molecular target: T10, panel of 468 kinases (Homo sapiens, UniProt Q13177); conditions: PAK2; 1 μM; read-out: % control
T10 construct: purchased KINOMEscan (ScanMAX) service
T10 sequence (Q13177 whole entry): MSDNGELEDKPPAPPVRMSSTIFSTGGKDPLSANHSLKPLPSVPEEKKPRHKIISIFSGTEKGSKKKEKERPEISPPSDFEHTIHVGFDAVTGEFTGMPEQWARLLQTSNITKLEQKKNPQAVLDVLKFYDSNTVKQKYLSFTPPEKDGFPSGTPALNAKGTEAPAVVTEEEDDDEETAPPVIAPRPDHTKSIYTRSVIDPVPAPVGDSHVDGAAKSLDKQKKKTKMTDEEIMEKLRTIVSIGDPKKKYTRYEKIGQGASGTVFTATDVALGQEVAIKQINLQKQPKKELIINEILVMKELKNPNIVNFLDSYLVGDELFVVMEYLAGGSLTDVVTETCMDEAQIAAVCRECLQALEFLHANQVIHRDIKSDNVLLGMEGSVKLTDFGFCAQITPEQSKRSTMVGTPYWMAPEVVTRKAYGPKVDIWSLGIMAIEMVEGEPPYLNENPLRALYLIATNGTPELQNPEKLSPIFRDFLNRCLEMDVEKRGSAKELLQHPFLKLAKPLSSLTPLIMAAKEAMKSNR

[11] = molecular target: T11, panel of 468 kinases (Homo sapiens, UniProt Q8N4C8); conditions: MINK; 1 μM; read-out: % control
T11 construct: purchased KINOMEscan (ScanMAX) service
T11 sequence (Q8N4C8 whole entry): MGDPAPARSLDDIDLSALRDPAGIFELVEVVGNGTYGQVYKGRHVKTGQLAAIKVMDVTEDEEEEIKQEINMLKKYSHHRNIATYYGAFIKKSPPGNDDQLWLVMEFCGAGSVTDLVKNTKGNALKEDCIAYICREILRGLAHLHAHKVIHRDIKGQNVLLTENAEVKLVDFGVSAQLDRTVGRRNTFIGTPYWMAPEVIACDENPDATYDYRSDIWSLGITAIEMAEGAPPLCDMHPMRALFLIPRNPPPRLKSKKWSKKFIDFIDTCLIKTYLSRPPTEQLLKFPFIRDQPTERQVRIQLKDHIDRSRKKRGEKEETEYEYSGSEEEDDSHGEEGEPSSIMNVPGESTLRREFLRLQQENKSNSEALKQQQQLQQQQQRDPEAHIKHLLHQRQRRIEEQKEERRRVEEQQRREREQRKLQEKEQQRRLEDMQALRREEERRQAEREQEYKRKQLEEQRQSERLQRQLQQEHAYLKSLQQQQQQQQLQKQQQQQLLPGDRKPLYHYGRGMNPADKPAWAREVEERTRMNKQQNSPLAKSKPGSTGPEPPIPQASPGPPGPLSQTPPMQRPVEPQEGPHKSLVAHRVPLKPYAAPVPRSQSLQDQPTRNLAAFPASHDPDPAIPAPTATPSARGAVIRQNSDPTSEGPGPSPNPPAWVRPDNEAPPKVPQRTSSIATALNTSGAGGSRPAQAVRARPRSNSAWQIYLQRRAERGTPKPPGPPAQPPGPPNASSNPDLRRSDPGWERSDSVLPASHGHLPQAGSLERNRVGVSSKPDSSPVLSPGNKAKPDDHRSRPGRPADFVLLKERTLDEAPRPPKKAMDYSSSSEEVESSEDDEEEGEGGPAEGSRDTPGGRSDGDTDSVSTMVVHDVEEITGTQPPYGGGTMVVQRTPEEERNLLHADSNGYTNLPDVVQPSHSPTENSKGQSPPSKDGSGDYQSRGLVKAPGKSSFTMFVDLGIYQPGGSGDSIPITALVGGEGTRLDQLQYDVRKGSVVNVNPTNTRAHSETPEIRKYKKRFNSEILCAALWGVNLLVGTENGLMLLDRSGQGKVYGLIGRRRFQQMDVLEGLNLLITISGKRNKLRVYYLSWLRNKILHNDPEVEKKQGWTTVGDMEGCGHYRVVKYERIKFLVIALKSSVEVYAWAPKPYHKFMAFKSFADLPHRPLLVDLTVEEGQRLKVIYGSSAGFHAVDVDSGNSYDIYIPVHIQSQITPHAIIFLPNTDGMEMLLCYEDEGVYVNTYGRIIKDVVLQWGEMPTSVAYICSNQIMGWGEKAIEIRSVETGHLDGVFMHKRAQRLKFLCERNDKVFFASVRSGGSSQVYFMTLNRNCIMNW

[12] = molecular target: T12, panel of 468 kinases (Homo sapiens, UniProt Q92772); conditions: CDKL2; 1 μM; read-out: % control
T12 construct: purchased KINOMEscan (ScanMAX) service
T12 sequence (Q92772 1-493): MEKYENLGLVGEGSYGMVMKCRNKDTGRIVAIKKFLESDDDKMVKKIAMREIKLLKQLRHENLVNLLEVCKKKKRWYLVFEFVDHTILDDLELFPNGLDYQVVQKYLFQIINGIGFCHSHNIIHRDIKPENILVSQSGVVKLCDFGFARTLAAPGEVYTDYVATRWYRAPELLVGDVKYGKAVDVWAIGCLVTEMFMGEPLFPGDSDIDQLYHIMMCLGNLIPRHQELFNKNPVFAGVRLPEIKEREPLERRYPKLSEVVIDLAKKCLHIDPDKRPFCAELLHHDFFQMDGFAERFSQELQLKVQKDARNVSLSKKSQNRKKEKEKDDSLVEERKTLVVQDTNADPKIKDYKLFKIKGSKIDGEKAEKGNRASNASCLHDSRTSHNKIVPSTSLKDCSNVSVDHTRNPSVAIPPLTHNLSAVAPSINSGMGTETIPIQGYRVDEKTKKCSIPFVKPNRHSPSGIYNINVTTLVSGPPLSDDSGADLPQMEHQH

[13] = molecular target: T13, panel of 468 kinases (Homo sapiens, UniProt Q9H4B4); conditions: PLK3; 1 μM; read-out: % control
T13 construct: purchased KINOMEscan (ScanMAX) service

[14] = molecular target: T14, panel of 468 kinases (Homo sapiens, UniProt Q9HBH9); conditions: MKNK2; 1 μM; read-out: % control
T14 construct: purchased KINOMEscan (ScanMAX) service
T14 sequence (Q9HBH9 whole entry): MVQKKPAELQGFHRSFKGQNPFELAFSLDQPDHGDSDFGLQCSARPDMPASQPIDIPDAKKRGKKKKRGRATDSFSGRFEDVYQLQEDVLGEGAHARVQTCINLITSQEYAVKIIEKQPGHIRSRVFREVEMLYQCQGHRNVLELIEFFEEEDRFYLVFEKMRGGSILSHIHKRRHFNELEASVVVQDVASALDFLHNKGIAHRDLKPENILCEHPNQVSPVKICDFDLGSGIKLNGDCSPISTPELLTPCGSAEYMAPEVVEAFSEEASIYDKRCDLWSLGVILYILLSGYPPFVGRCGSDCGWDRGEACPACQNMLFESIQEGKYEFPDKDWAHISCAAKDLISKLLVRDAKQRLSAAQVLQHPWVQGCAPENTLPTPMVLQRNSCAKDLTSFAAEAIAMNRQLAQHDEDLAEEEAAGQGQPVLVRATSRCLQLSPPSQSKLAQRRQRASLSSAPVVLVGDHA

Compound | remaining binding at 1 µM [1] [%] | remaining binding at 1 µM ([2]; RPS6KA5(Kin.Dom.1-N-terminal)) [%] | remaining binding at 1 µM ([2]; RPS6KA5(Kin.Dom.2-C-terminal)) [%] | remaining binding at 1 µM [3] [%] | remaining binding at 1 µM [4] [%] | remaining binding at 1 µM [5] [%] | remaining binding at 1 µM [6] [%] | remaining binding at 1 µM [7] [%] | remaining binding at 1 µM [8] [%] | remaining binding at 1 µM [9] [%] | remaining binding at 1 µM [10] [%] | remaining binding at 1 µM [11] [%] | remaining binding at 1 µM [12] [%] | remaining binding at 1 µM [13] [%] | remaining binding at 1 µM [14] [%]
CNc1nc(Nc2ccc(C(=O)N3CCC(N4CCOCC4)CC3)c3c2OCO3)nc2[nH]cc(Cl)c12 [Compound 75, (7-((5-chloro-4-(methylamino)-7H-pyrrolo[2,3-d]pyrimidin-2-yl)amino)benzo[d][1,3]dioxol-4-yl)(4-morpholinopiperidin-1-yl)methanone] | 28 | 100 | 21 | 24 | 70 | 62 | 93 | 100 | 100 | 100 | 100 | 18 | 100 | 100 | 10
CNc1nc(Nc2ccc(S(=O)(=O)N3CCC(N4CCOCC4)CC3)cc2OC)nc2[nH]cc(Cl)c12 [Compound 12, 5-chloro-N2-(2-methoxy-4-((4-morpholinopiperidin-1-yl)sulfonyl)phenyl)-N4-methyl-7H-pyrrolo[2,3-d]pyrimidine-2,4-diamine] | 89 | 100 | 69 | 31 | 100 | 89 | 97 | 100 | 100 | 81 | 100 | 75 | 100 | 100 | 57
CNc1nc(Nc2ccc(P3(=O)CCN(C4CCOCC4)CC3)cc2OC)nc2[nH]cc(Cl)c12 [Compound 77, 4-(4-((5-chloro-4-(methylamino)-7H-pyrrolo[2,3-d]pyrimidin-2-yl)amino)-3-methoxyphenyl)-1-(tetrahydro-2H-pyran-4-yl)-1,4-azaphosphinane 4-oxide] | 88 | 94 | 20 | 10 | 100 | 100 | 100 | 91 | 100 | 100 | 100 | 63 | 100 | 96 | 31
